Measurements as given in ChEMBL document CHEMBL3044990, “Synthesis and Insecticidal Activity of 5-Dimethylamino-1, 3dithianes” (1991).
In brackets after ≈: the same amount, converted by molar mass.

Legend:
Assay type in all cases: functional
[1] = tested on: Spodoptera litura; assay: Insecticidal activity against third-instar larvae of Spodoptera litura in soybean seedlings assessed as mortality at 500 ppm after 48 hr
[2] = tested on: Henosepilachna vigintioctopunctata; assay: Insecticidal activity against third-instar larvae of Henosepilachna vigintioctopunctata assessed as mortality after 2 days; settings: 48 h
[3] = tested on: Tetranychus urticae; assay: Insecticidal activity against Tetranychus urticae (two-spotted spider mite) in kidney bean plant leaf assessed as mortality at 500 ppm after 2 days; settings: 48 h
[4] = tested on: Laodelphax striatellus; assay: Insecticidal activity against 3rd instar larva of Laodelphax striatella (small brown planthopper) assessed as mortality at 50 ppm after 6 days; settings: 144 h
[5] = tested on: Chilo suppressalis; assay: Insecticidal activity against 5th instar larva of Chilo suppressalis assessed as mortality at 50 ug/g after 48 hr

CN1CCN(C(=O)C2(C#N)SCC(N(C)C)CS2)CC1 (centres undefined)
mortality at 500 ppm [1]: 20% | LC50 [2]: 20 µg/mL (≈ 63.6 µM) | mortality at 500 ppm [3]: 100% | mortality at 50 ppm [4]: 35% | mortality [5]: 100%

COc1ccc(C2(C#N)SCC(N(C)C)CS2)cc1 (centres undefined)
LC50 [2]: 35 µg/mL (≈ 119 µM) | mortality at 500 ppm [3]: 100% | mortality at 50 ppm [4]: 20% | mortality [5]: 100%

CNC(=O)C1(C#N)SCC(N(C)C)CS1 (centres undefined)
mortality at 500 ppm [1]: 90% | LC50 [2]: 25 µg/mL (≈ 102 µM) | mortality at 500 ppm [3]: 100% | mortality at 50 ppm [4]: 50% | mortality [5]: 100%

CN(C)C1CSC(C#N)(c2ccc([N+](=O)[O-])cc2)SC1 (centres undefined)
LC50 [2]: 18 µg/mL (≈ 58.2 µM) | mortality at 500 ppm [3]: 60% | mortality at 50 ppm [4]: 95% | mortality [5]: 100%

CC(C)NC(=O)C1(C#N)SCC(N(C)C)CS1 (centres undefined)
mortality at 500 ppm [1]: 40% | LC50 [2]: 40 µg/mL (≈ 146 µM) | mortality at 500 ppm [3]: 100% | mortality at 50 ppm [4]: 20% | mortality [5]: 100%

CCC(C)NC(=O)C1(C#N)SCC(N(C)C)CS1 (centres undefined)
mortality at 500 ppm [1]: 80% | LC50 [2]: 33 µg/mL (≈ 115 µM) | mortality at 500 ppm [3]: 100% | mortality at 50 ppm [4]: 25% | mortality [5]: 100%

CN(C)C1CSC(C#N)(C(=O)NC(C)(C)C)SC1 (centres undefined)
mortality at 500 ppm [1]: 80% | LC50 [2]: 20 µg/mL (≈ 69.6 µM) | mortality at 500 ppm [3]: 100% | mortality at 50 ppm [4]: 45% | mortality [5]: 100%

CCCCCCCCNC(=O)C1(C#N)SCC(N(C)C)CS1 (centres undefined)
mortality at 500 ppm [1]: 80% | LC50 [2]: 23 µg/mL (≈ 66.9 µM) | mortality at 500 ppm [3]: 100% | mortality at 50 ppm [4]: 80% | mortality [5]: 100%

CN(C)C1CSSC1 [NEREISTOXIN]
mortality at 500 ppm [1]: 90% | mortality at 500 ppm [3]: 50% | mortality at 50 ppm [4]: 80% | mortality [5]: 100%

CN(C)C1CSC(C#N)(C(=O)N2CCCC2)SC1 (centres undefined)
mortality at 500 ppm [1]: 20% | LC50 [2]: 10 µg/mL (≈ 35 µM) | mortality at 500 ppm [3]: 100% | mortality at 50 ppm [4]: 25% | mortality [5]: 100%

CN(C)C1CSC(C#N)(C(=O)NC2CCCCC2)SC1 (centres undefined)
mortality at 500 ppm [1]: 50% | LC50 [2]: 25 µg/mL (≈ 79.7 µM) | mortality at 500 ppm [3]: 80% | mortality at 50 ppm [4]: 40% | mortality [5]: 100%

CCCCCCCCCCNC(=O)C1(C#N)SCC(N(C)C)CS1 (centres undefined)
mortality at 500 ppm [1]: 50% | LC50 [2]: 20 µg/mL (≈ 53.8 µM) | mortality at 500 ppm [3]: 90% | mortality at 50 ppm [4]: 85% | mortality [5]: 100%

CN(C)C1CSC(C#N)(c2ccccc2Cl)SC1 (centres undefined)
LC50 [2]: 15 µg/mL (≈ 50.2 µM) | mortality at 500 ppm [3]: 100% | mortality at 50 ppm [4]: 95% | mortality [5]: 100%

CN(C)C1CSC(C#N)(c2cc(F)ccc2F)SC1 (centres undefined)
LC50 [2]: 30 µg/mL (≈ 99.9 µM) | mortality at 500 ppm [3]: 100% | mortality at 50 ppm [4]: 30% | mortality [5]: 100%

CN(C)C1CSC(C#N)(c2ccc(F)cc2)SC1 (centres undefined)
LC50 [2]: 130 µg/mL (≈ 460 µM) | mortality at 500 ppm [3]: 100% | mortality at 50 ppm [4]: 15% | mortality [5]: 100%

CN(C)C1CSC(C#N)(c2ccccc2F)SC1 (centres undefined)
LC50 [2]: 15 µg/mL (≈ 53.1 µM) | mortality at 500 ppm [3]: 100% | mortality at 50 ppm [4]: 55% | mortality [5]: 100%

CN(C)C1CSC(C#N)(c2ccc(Br)cc2)SC1 (centres undefined)
LC50 [2]: 25 µg/mL (≈ 72.8 µM) | mortality at 500 ppm [3]: 100% | mortality at 50 ppm [4]: 100% | mortality [5]: 100%

COc1ccccc1C1(C#N)SCC(N(C)C)CS1 (centres undefined)
LC50 [2]: 30 µg/mL (≈ 102 µM) | mortality at 500 ppm [3]: 100% | mortality at 50 ppm [4]: 20% | mortality [5]: 100%

CC(C)N(C(=O)C1(C#N)SCC(N(C)C)CS1)C(C)C (centres undefined)
mortality at 500 ppm [1]: 60% | LC50 [2]: 16 µg/mL (≈ 50.7 µM) | mortality at 500 ppm [3]: 100% | mortality at 50 ppm [4]: 26% | mortality [5]: 100%

CN(C)C1CSC(C#N)(c2ccccc2Br)SC1 (centres undefined)
LC50 [2]: 10 µg/mL (≈ 29.1 µM) | mortality at 500 ppm [3]: 100% | mortality at 50 ppm [4]: 85% | mortality [5]: 100%

CCN(CC)C(=O)C1(C#N)SCC(N(C)C)CS1 (centres undefined)
mortality at 500 ppm [1]: 80% | LC50 [2]: 15 µg/mL (≈ 52.2 µM) | mortality at 500 ppm [3]: 80% | mortality at 50 ppm [4]: 24% | mortality [5]: 100%

Cc1ccccc1C1(C#N)SCC(N(C)C)CS1 (centres undefined)
LC50 [2]: 100 µg/mL (≈ 359 µM) | mortality at 500 ppm [3]: 60% | mortality at 50 ppm [4]: 20% | mortality [5]: 100%

Cc1ccc(C2(C#N)SCC(N(C)C)CS2)cc1 (centres undefined)
LC50 [2]: 25 µg/mL (≈ 89.8 µM) | mortality at 500 ppm [3]: 100% | mortality at 50 ppm [4]: 85% | mortality [5]: 100%

CCCCCCCCCCCCCCNC(=O)C1(C#N)SCC(N(C)C)CS1 (centres undefined)
mortality at 500 ppm [1]: 70% | LC50 [2]: 33 µg/mL (≈ 77.2 µM) | mortality at 500 ppm [3]: 70% | mortality at 50 ppm [4]: 25% | mortality [5]: 100%

CN(C)C1CSC(C#N)(c2ccc(Cl)c(Cl)c2)SC1 (centres undefined)
LC50 [2]: 12 µg/mL (≈ 36 µM) | mortality at 500 ppm [3]: 50% | mortality at 50 ppm [4]: 40% | mortality [5]: 100%

Cc1cccc(C2(C#N)SCC(N(C)C)CS2)c1 (centres undefined)
LC50 [2]: 120 µg/mL (≈ 431 µM) | mortality at 500 ppm [3]: 80% | mortality at 50 ppm [4]: 30% | mortality [5]: 100%

CN(C)C1CSC(C#N)(c2ccc(Cl)cc2)SC1 (centres undefined)
LC50 [2]: 120 µg/mL (≈ 402 µM) | mortality at 500 ppm [3]: 100% | mortality at 50 ppm [4]: 75% | mortality [5]: 100%

CCCCCNC(=O)C1(C#N)SCC(N(C)C)CS1 (centres undefined)
mortality at 500 ppm [1]: 50% | LC50 [2]: 10 µg/mL (≈ 33.2 µM) | mortality at 500 ppm [3]: 50% | mortality at 50 ppm [4]: 29% | mortality [5]: 100%

CN(C)C1CSC(C#N)(c2cccc(Br)c2)SC1 (centres undefined)
LC50 [2]: 15 µg/mL (≈ 43.7 µM) | mortality at 500 ppm [3]: 100% | mortality at 50 ppm [4]: 70% | mortality [5]: 100%

CN(C)C1CSC(C#N)(c2cccc(Cl)c2)SC1 (centres undefined)
LC50 [2]: 10 µg/mL (≈ 33.5 µM) | mortality at 500 ppm [3]: 80% | mortality at 50 ppm [4]: 85% | mortality [5]: 100%

CN(C)C1CSC(C#N)(C(=O)NC2CC2)SC1 (centres undefined)
mortality at 500 ppm [1]: 50% | LC50 [2]: 8 µg/mL (≈ 29.5 µM) | mortality at 500 ppm [3]: 40% | mortality at 50 ppm [4]: 25% | mortality [5]: 100%

CN(C)C1CSC(C#N)(c2cccc(F)c2)SC1 (centres undefined)
LC50 [2]: 18 µg/mL (≈ 63.7 µM) | mortality at 500 ppm [3]: 100% | mortality at 50 ppm [4]: 85% | mortality [5]: 100%

CN(C)C1CSC(C#N)(c2ccccc2[N+](=O)[O-])SC1 (centres undefined)
LC50 [2]: 19 µg/mL (≈ 61.4 µM) | mortality at 500 ppm [3]: 70% | mortality at 50 ppm [4]: 85% | mortality [5]: 100%

CCNC(=O)C1(C#N)SCC(N(C)C)CS1 (centres undefined)
mortality at 500 ppm [1]: 80% | LC50 [2]: 6 µg/mL (≈ 23.1 µM) | mortality at 500 ppm [3]: 90% | mortality at 50 ppm [4]: 20% | mortality [5]: 100%

CN(C)C1CSC(C#N)(c2ccc(N)cc2)SC1 (centres undefined)
LC50 [2]: 25 µg/mL (≈ 89.5 µM) | mortality at 500 ppm [3]: 100% | mortality at 50 ppm [4]: 45% | mortality [5]: 100%

CN(C)C1CSC(C#N)(c2cccc(C(F)(F)F)c2)SC1 (centres undefined)
LC50 [2]: 18 µg/mL (≈ 54.1 µM) | mortality at 500 ppm [3]: 100% | mortality at 50 ppm [4]: 95% | mortality [5]: 100%

CCCCNC(=O)C1(C#N)SCC(N(C)C)CS1 (centres undefined)
mortality at 500 ppm [1]: 80% | LC50 [2]: 40 µg/mL (≈ 139 µM) | mortality at 500 ppm [3]: 100% | mortality at 50 ppm [4]: 20% | mortality [5]: 100%

CN(C)C1CSC(C#N)(c2cc(Cl)cc(Cl)c2)SC1 (centres undefined)
LC50 [2]: 133 µg/mL (≈ 399 µM) | mortality at 500 ppm [3]: 100% | mortality at 50 ppm [4]: 55% | mortality [5]: 100%

CN(C)C1CSC(C#N)(c2c(Cl)cccc2Cl)SC1 (centres undefined)
LC50 [2]: 15 µg/mL (≈ 45 µM) | mortality at 500 ppm [3]: 80% | mortality at 50 ppm [4]: 99% | mortality [5]: 100%

CN(C)C1CSC(C#N)(c2ccccc2)SC1 (centres undefined)
LC50 [2]: 200 µg/mL (≈ 756 µM) | mortality at 500 ppm [3]: 10% | mortality at 50 ppm [4]: 15% | mortality [5]: 100%

Cc1ccc(C)c(C2(C#N)SCC(N(C)C)CS2)c1 (centres undefined)
LC50 [2]: 25 µg/mL (≈ 85.5 µM) | mortality at 500 ppm [3]: 100% | mortality at 50 ppm [4]: 15% | mortality [5]: 100%

CN(C)C1CSC(C#N)(c2cccc([N+](=O)[O-])c2)SC1 (centres undefined)
LC50 [2]: 15 µg/mL (≈ 48.5 µM) | mortality at 500 ppm [3]: 100% | mortality at 50 ppm [4]: 70% | mortality [5]: 100%
